The values that follow are results of earlier work, collected in patent publication US20060173046A1, “Hydroxypyridine cgrp receptor antagonists” (priority 2003, published 2006).

The test system of one series is marmoset. The settings on record: electrical stimulation of the trigeminal ganglion.
The subject of a further series is rat. The settings on record: trigeminal ganglion stimulation.
In the next series the test system is rats. The settings on record: electrical stimulation of the dura mater, prior administration.

Ends that are not written are not given here.

Turning to `NCCCC[C@H](NC(=O)[C@@H](Cc1cc(Br)c(O)c(Br)c1)NC(=O)N1CCC(N2Cc3ccccc3NC2=O)CC1)C(=O)N1CCN(c2ccncc2)CC1` [BIBN4096BS], the “increase in facial blood flow” value in the series on marmoset is “blocked”.

On to “CGRP(8-37): a peptide CGRP antagonist (VTHRLAGLLSRSGGVVKNNFVPTNVGSKAF; ends and bridges not checked; UniProt P06881 90-119, looked up, fragment)”, for which the “increased facial blood flow” value with rat is recorded as “inhibited”. Besides, the “increase of the diameter of the middle meningeal artery” value with rats is on record as “blocked”.
